For experiment [1], the species on record is Mus musculus. Briefly: Compound was evaluated for antinociceptive activity in mouse. It counts as functional.
The species entered for experiment [2] is Mus musculus. The experiment is described as follows: Compound was evaluated for antinociceptive activity in mouse using tail flick vs morphine assay. It is filed as functional.
Experiment [3] deals with Kappa-type opioid receptor (Rattus norvegicus, UniProt P34975). The experiment is described as follows: Compound was evaluated for its ability to displace [3H]U-69593 in CHO cells expressing the cloned Opioid receptor kappa 1. It counts as cell-based.
The species named for experiment [4] is Mus musculus. The experiment is described as follows: Compound was evaluated for antinociceptive activity in mouse; IA means inactive. It is filed as functional, organism-based.
For experiment [5], the target named is Delta-type opioid receptor (Rattus norvegicus, UniProt P33533). Briefly: Compound was evaluated for its ability to displace [3H]p-CI-DPDPE in C6 glioma cells expressing the cloned Opioid receptor delta 1. It is filed as cell-based.
For experiment [6], the species on record is Mus musculus. Briefly: Compound was evaluated for antinociceptive activity in mouse using tail flick assay. It counts as functional. Background: In hot-plate and tail-flick tests a longer latency is read as antinociception.
Experiment [7] is filed under the species Mus musculus. Briefly: Compound was evaluated for antinociceptive activity in mouse using hot plate assay. It is filed as functional.
For experiment [8], the species on record is Mus musculus. The experiment is described as follows: Compound was evaluated for antinociceptive activity in mouse using paraphenylquinone assay. It counts as functional.
Experiment [9] deals with Opioid receptors; mu & delta (Homo sapiens) (UniProt P41143+P35372). Briefly: Ratio of binding affinity to mu receptor to that of delta receptor. It counts as protein assay.
In experiment [10] the target is Mu-type opioid receptor (Rattus norvegicus, UniProt P33535). Briefly: Compound was evaluated for its ability to displace [3H]DAMGO in C6 glioma cells expressing the cloned Opioid receptor mu 1. It counts as cell-based.
The species entered for experiment [11] is Mus musculus. The experiment is described as follows: Compound was evaluated for antinociceptive activity in mouse using tail flick vs morphine assay; Inactive. It counts as functional, organism-based.
For experiment [12], the species on record is Mus musculus. The experiment is described as follows: Compound was evaluated for antinociceptive activity in mouse using tail flick assay; Inactive. It is filed as functional, organism-based.
The species named for experiment [13] is Mus musculus. Briefly: Compound was evaluated for antinociceptive activity in mouse using hot plate assay; Inactive. It is filed as functional, organism-based.
Experiment [14] is filed under the species Mus musculus. Briefly: Compound was evaluated for antinociceptive activity in mouse using paraphenylquinone assay; Inactive. It is filed as functional, organism-based.

Each structure is given as a SMILES string. Active and inactive are the calls of the source. The rule behind the calls is not given here.

A word on the Ki: it is a measure of affinity in units of concentration, obtained from inhibition or displacement. Higher therefore signals a looser hold on the target.

Sequence of Opioid receptors; mu & delta (Homo sapiens) (P35372 whole entry, looked up): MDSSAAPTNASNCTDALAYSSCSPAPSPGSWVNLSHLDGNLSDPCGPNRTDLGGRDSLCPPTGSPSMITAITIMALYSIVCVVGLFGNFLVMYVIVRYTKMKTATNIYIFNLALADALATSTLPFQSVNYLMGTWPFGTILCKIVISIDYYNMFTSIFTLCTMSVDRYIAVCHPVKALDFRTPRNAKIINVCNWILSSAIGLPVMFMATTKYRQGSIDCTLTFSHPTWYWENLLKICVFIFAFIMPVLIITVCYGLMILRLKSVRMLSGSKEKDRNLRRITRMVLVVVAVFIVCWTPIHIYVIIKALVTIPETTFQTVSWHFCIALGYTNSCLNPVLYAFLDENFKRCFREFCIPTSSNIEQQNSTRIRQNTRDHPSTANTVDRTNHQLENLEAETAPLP
Sequence of Opioid receptors; mu & delta (Homo sapiens) (P41143 whole entry, looked up): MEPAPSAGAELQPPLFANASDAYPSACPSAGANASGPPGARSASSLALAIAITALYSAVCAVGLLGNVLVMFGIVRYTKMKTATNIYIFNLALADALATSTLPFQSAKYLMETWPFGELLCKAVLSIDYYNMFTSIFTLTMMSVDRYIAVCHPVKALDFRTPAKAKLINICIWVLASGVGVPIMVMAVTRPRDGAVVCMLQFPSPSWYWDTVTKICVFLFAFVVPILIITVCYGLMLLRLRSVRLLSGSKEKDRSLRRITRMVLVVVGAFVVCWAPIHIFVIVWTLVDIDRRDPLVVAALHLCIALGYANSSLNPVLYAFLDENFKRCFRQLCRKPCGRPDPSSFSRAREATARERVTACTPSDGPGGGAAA
Sequence of Delta-type opioid receptor (P33533 whole entry): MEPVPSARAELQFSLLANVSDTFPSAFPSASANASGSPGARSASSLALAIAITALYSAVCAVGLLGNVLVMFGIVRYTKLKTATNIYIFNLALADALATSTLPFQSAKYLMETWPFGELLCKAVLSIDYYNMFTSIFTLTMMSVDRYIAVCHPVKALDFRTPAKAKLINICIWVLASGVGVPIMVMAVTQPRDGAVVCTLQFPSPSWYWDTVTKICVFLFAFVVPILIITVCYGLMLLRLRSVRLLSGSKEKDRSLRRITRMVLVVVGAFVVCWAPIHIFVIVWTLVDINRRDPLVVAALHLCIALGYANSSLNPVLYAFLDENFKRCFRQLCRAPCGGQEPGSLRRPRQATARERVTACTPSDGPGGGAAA
Sequence of Kappa-type opioid receptor (P34975 whole entry): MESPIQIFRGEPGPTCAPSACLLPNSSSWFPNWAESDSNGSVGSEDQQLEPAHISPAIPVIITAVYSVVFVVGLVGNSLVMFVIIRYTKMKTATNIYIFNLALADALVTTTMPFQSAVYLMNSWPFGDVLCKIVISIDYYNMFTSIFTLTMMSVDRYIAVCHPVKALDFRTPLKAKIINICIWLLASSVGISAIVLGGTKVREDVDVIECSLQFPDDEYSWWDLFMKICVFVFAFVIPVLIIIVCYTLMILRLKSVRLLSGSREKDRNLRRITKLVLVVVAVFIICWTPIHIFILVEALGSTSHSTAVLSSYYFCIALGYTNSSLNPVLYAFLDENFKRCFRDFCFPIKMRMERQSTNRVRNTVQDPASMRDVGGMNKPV
Sequence of Mu-type opioid receptor (P33535 whole entry): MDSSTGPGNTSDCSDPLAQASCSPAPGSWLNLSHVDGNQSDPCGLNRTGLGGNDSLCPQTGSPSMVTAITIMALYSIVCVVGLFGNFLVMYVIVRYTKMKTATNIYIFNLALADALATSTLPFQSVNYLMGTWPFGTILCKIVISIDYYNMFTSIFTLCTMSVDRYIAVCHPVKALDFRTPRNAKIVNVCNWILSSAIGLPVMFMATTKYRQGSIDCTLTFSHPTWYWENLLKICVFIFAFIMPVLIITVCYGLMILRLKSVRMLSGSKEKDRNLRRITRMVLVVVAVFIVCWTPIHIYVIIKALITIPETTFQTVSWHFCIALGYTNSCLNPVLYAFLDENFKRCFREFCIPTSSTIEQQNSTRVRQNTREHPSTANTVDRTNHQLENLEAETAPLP

In turn, `CCCN(CC1CC1)C1Cc2ccc(O)c3c2C2C(O3)C(NC(=O)/C=C/C(=O)OC)CC[C@]21O` (some centres undefined) registered an AD50 in [1] of 1.25 ug brain-1.
In turn, `C=CCN1CC[C@]23c4c5ccc(O)c4O[C@H]2C(=O)CC[C@@]3(O)[C@H]1C5` [NALOXONE] displayed an Activity in experiment [2] of 0.04 mg/kg. In [1], this molecule displayed an AD50 of 0.1.
Turning to `Oc1ccc2c3c1O[C@H]1c4[nH]c5ccccc5c4C[C@@]4(O)[C@@H](C2)N(CC2CC2)CC[C@]314` [NALTRINDOLE], the Ki is 5.8 nM in experiment [3] and 0.04 nM in [5]. Moreover, the outcome in experiment [4] was inactive.
For `Oc1ccc2c3c1O[C@H]1c4[nH]c5c(c4C[C@@]4(O)[C@@H](C2)N(CC2CC2)CC[C@]314)C[C@@]1(O)[C@H]2Cc3ccc(O)c4c3[C@@]1(CCN2CC1CC1)[C@H]5O4`, the outcome in experiment [4] was inactive.
Take `CN1CC[C@]23c4c5ccc(O)c4O[C@H]2[C@@H](O)C=C[C@H]3[C@H]1C5.CN1CC[C@]23c4c5ccc(O)c4O[C@H]2[C@@H](O)C=C[C@H]3[C@H]1C5.O=S(=O)(O)O`: the Activity in [6] was found to be 0.73 mg/kg; in [7] it was 3.1 mg/kg; in experiment [8] it was 0.4 mg/kg.
`Oc1ccc2c3c1OC1c4[nH]c5ccccc5c4C[C@@]4(O)[C@@H](C2)N(Cc2ccccc2)CCC314` (some centres undefined): in experiment [9], the Ratio turned out to be 46. The Ki in experiment [3] turned out to be 134 nM; in [10], 5330 nM; in [5], 115 nM.
Turning to `Oc1ccc2c3c1OC1c4[nH]c5ccccc5c4C[C@@]4(O)[C@@H](C2)N(CC2CCCCC2)CCC314` (some centres undefined), the Ratio in experiment [9] worked out at 20. In addition, the outcome in experiment [11], in experiment [12], in [13] and in [14] was inactive. Further, the Ki is 1110 nM in [3], 1920 nM in experiment [10] and 94.5 nM in experiment [5].
With `Oc1ccc2c3c1OC1c4[nH]c5ccccc5c4C[C@@]4(O)[C@@H](C2)N(CCC2CCCCC2)CCC314` (some centres undefined), the Ratio in experiment [9] is 0. The Activity in experiment [6] stood at 3.86 mg/kg; in experiment [7] it was 2.42 mg/kg; in [8], 0.39 mg/kg. Besides, the figures for the Ki in experiment [3], in [10] and in [5] were 378 nM, 7.3 nM and 181 nM, respectively.

Source of the values: ChEMBL document CHEMBL1132798 (Bioorg Med Chem Lett, 2000).
